US20230278972A1, “SUBSTITUTED HALOALKYL SULFONANILIDE HERBICIDES” (FMC Corporation, priority 2020, published 2023)

Columns and labels:
Type in all cases: in vivo
[1] = test system: barnyardgrass (Echinochloa crus-galli); assay: Test A preemergence, barnyardgrass; conditions: Preemergence; for Plant response rating, Barnyardgrass: 0 to 100 scale (0 no effect, 100 complete control)
From the text: (§1) Seeds of plant species selected from barnyardgrass (Echinochloa crus-galli), kochia (Bassia scoparia), ragweed (common ragweed, Ambrosia artemisiifolia), Ryegrass, Italian (Italian ryegrass, Lolium multiflorum), Foxtail, Giant (giant foxtail, Setaria faberi), and pigweed (Amaranthus retroflexus) were planted into a blend of loam soil and sand and treated preemergence with a directed soil spray using test chemicals formulated in a non-phytotoxic solvent mixture which included a surfactant. At the same time, plants selected from these weed species and also wheat (Triticum aestivum), corn (Zea mays), blackgrass (Alopecurus myosuroides), and galium (catchweed bedstraw, Galium aparine) were planted in pots containing the same blend of loam soil and sand and treated with postemergence applications of test chemicals formulated in the same manner. Plants ranged in height from 2 to 10 cm and were in the one- to two-leaf stage for the postemergence treatment. […] A dash (-) response means no test result.

[2] = test system: ragweed (common ragweed, Ambrosia artemisiifolia); assay: Test A postemergence, ragweed; conditions: Postemergence, 0 to 100 scale (0 no effect, 100 complete control); for Plant response rating, Ragweed: 125 g ai/ha; for Ragweed plant response rating: 500 g ai/ha, visual injury vs untreated controls after approx. 10 days
From the text: as §1

[3] = test system: kochia (Bassia scoparia); assay: Test A postemergence, kochia; conditions: Postemergence, 0 to 100 scale (0 no effect, 100 complete control); for Plant response rating, Kochia: 125 g ai/ha; for Kochia plant response rating: 500 g ai/ha, visual injury vs untreated controls after approx. 10 days
From the text: as §1

[4] = test system: pigweed (Amaranthus retroflexus); assay: Test A postemergence, pigweed; conditions: Postemergence, 0 to 100 scale (0 no effect, 100 complete control); for Plant response rating, Pigweed: 125 g ai/ha; for Pigweed plant response rating: 500 g ai/ha, visual injury vs untreated controls after approx. 10 days
From the text: as §1

[5] = test system: Ryegrass, Italian (Italian ryegrass, Lolium multiflorum); assay: Test A postemergence, Ryegrass, Italian; conditions: Postemergence, 0 to 100 scale (0 no effect, 100 complete control); for Plant response rating, Ryegrass, Italian: 125 g ai/ha; for Ryegrass, Italian plant response rating: 500 g ai/ha, visual injury vs untreated controls after approx. 10 days
From the text: as §1

[6] = test system: ragweed (common ragweed, Ambrosia artemisiifolia); assay: Test A preemergence, ragweed; conditions: Preemergence; for Plant response rating, Ragweed: 0 to 100 scale (0 no effect, 100 complete control); for Ragweed plant response rating: visual injury on 0 to 100 scale (0 no effect, 100 complete control), approximately 10 days
From the text: as §1

[7] = test system: pigweed (Amaranthus retroflexus); assay: Test A preemergence, pigweed; conditions: for Plant response rating, Pigweed: 0 to 100 scale (0 no effect, 100 complete control); for Pigweed plant response rating: visual injury on 0 to 100 scale (0 no effect, 100 complete control), approximately 10 days
From the text: as §1

[8] = test system: corn (Zea mays); assay: Test A postemergence, corn; conditions: Postemergence, 0 to 100 scale (0 no effect, 100 complete control); for Plant response rating, Corn: 125 g ai/ha; for Corn plant response rating: 500 g ai/ha, visual injury vs untreated controls after approx. 10 days
From the text: as §1

[9] = test system: wheat (Triticum aestivum); assay: Test A postemergence, wheat; conditions: Postemergence, 0 to 100 scale (0 no effect, 100 complete control); for Plant response rating, Wheat: 125 g ai/ha; for Wheat plant response rating: 500 g ai/ha, visual injury vs untreated controls after approx. 10 days
From the text: as §1

[10] = test system: blackgrass (Alopecurus myosuroides); assay: Test A postemergence, blackgrass; conditions: Postemergence, 0 to 100 scale (0 no effect, 100 complete control); for Plant response rating, Blackgrass: 125 g ai/ha; for Blackgrass plant response rating: 500 g ai/ha, visual injury vs untreated controls after approx. 10 days
From the text: as §1

[11] = test system: Ryegrass, Italian (Italian ryegrass, Lolium multiflorum); assay: Test A preemergence, Ryegrass, Italian; conditions: Preemergence; for Plant response rating, Ryegrass, Italian: 0 to 100 scale (0 no effect, 100 complete control); for Ryegrass, Italian plant response rating: visual injury on 0 to 100 scale (0 no effect, 100 complete control), approximately 10 days
From the text: as §1

[12] = test system: galium (catchweed bedstraw, Galium aparine); assay: Test A postemergence, galium; conditions: Postemergence, 0 to 100 scale (0 no effect, 100 complete control); for Plant response rating, Galium: 125 g ai/ha; for Galium plant response rating: 500 g ai/ha, visual injury vs untreated controls after approx. 10 days
From the text: as §1

[13] = test system: Foxtail, Giant (giant foxtail, Setaria faberi); assay: Test A preemergence, Foxtail, Giant; conditions: Preemergence; for Plant response rating, Foxtail, Giant: 0 to 100 scale (0 no effect, 100 complete control); for Foxtail, Giant plant response rating: visual injury on 0 to 100 scale (0 no effect, 100 complete control), approximately 10 days
From the text: as §1

[14] = test system: kochia (Bassia scoparia); assay: Test A preemergence, kochia; conditions: Preemergence; for Plant response rating, Kochia: 0 to 100 scale (0 no effect, 100 complete control); for Kochia plant response rating: visual injury on 0 to 100 scale (0 no effect, 100 complete control), approximately 10 days
From the text: as §1

[15] = test system: Foxtail, Giant (giant foxtail, Setaria faberi); assay: Test A postemergence, Foxtail, Giant; conditions: Postemergence, 0 to 100 scale (0 no effect, 100 complete control); for Plant response rating, Foxtail, Giant: 125 g ai/ha; for Foxtail, Giant plant response rating: 500 g ai/ha, visual injury vs untreated controls after approx. 10 days
From the text: as §1

[16] = 125 g ai/ha, visual injury, approx. 10 days

Cc1cc(C)c(C(=O)N2CCC(F)(F)C2)cc1NS(=O)(=O)C(F)(F)F [Compound 202]
Plant response rating, Barnyardgrass [1, 16]: 30
Plant response rating, Barnyardgrass ([1]; 500 g ai/ha): 90
Plant response rating, Ragweed [2]: 80
Ragweed plant response rating [2]: 90
Plant response rating, Kochia [3]: 20
Kochia plant response rating [3]: 50
Plant response rating, Pigweed [4]: 70
Pigweed plant response rating [4]: 100
Plant response rating, Ryegrass, Italian [5]: 20
Ryegrass, Italian plant response rating [5]: 70
Plant response rating, Ragweed [6, 16]: 70
Plant response rating, Ragweed ([6]; 500 g ai/ha): 90
Plant response rating, Pigweed [7, 16]: 100
Plant response rating, Pigweed ([7]; 500 g ai/ha): 100
Plant response rating, Corn [8]: 0
Corn plant response rating [8]: 20
Plant response rating, Wheat [9]: 30
Wheat plant response rating [9]: 60
Plant response rating, Blackgrass [10]: 0
Blackgrass plant response rating [10]: 0
Plant response rating, Ryegrass, Italian [11, 16]: 40
Plant response rating, Ryegrass, Italian ([11]; 500 g ai/ha): 70
Plant response rating, Galium [12]: 50
Galium plant response rating [12]: 80
Plant response rating, Foxtail, Giant [13, 16]: 60
Plant response rating, Foxtail, Giant ([13]; 500 g ai/ha): 70
Plant response rating, Kochia [14, 16]: 40
Plant response rating, Kochia ([14]; 500 g ai/ha): 80
Plant response rating, Foxtail, Giant [15]: 0
Foxtail, Giant plant response rating [15]: 70

Cc1cc(C)c(N(S(=O)(=O)C(F)(F)F)S(=O)(=O)C(F)(F)F)cc1C1=NOC(C)(CCl)C1 (stereo not drawn) [Compound 227]
Plant response rating, Barnyardgrass [1, 16]: 60
Plant response rating, Barnyardgrass ([1]; 500 g ai/ha): 90
Plant response rating, Ragweed [2]: 0
Ragweed plant response rating [2]: 10
Plant response rating, Kochia [3]: 10
Kochia plant response rating [3]: 60
Plant response rating, Pigweed [4]: 20
Pigweed plant response rating [4]: 50
Plant response rating, Ryegrass, Italian [5]: 0
Ryegrass, Italian plant response rating [5]: 0
Plant response rating, Ragweed [6, 16]: 30
Ragweed plant response rating ([6]; 500 g ai/ha): 80
Plant response rating, Pigweed [7, 16]: 50
Pigweed plant response rating ([7]; 500 g ai/ha): 80
Plant response rating, Corn [8]: 10
Corn plant response rating [8]: 0
Plant response rating, Wheat [9]: 70
Wheat plant response rating [9]: 40
Plant response rating, Blackgrass [10]: 0
Blackgrass plant response rating [10]: 20
Plant response rating, Ryegrass, Italian [11, 16]: 40
Ryegrass, Italian plant response rating ([11]; 500 g ai/ha): 100
Plant response rating, Galium [12]: 40
Galium plant response rating [12]: 90
Plant response rating, Foxtail, Giant [13, 16]: 90
Foxtail, Giant plant response rating ([13]; 500 g ai/ha): 100
Plant response rating, Kochia [14, 16]: 60
Kochia plant response rating ([14]; 500 g ai/ha): 90
Plant response rating, Foxtail, Giant [15]: 0
Foxtail, Giant plant response rating [15]: 20

Cc1cc(C)c(N(S(C)(=O)=O)S(=O)(=O)C(F)(F)F)cc1-c1ccnn(C)c1=O [Compound 73]
Barnyardgrass plant response rating ([1]; 125 g ai/ha, visual injury on 0 to 100 scale (0 no effect, 100 complete control), approximately 10 days): 90
Plant response rating, Barnyardgrass ([1]; 500 g ai/ha): 90
Plant response rating, Ragweed ([2]; visual injury approx. 10 days): 20
Ragweed plant response rating [2]: 80
Plant response rating, Kochia ([3]; visual injury approx. 10 days): 10
Kochia plant response rating [3]: 70
Plant response rating, Pigweed ([4]; visual injury approx. 10 days): 60
Pigweed plant response rating [4]: 80
Plant response rating, Ryegrass, Italian ([5]; visual injury approx. 10 days): 60
Ryegrass, Italian plant response rating [5]: 90
Ragweed plant response rating ([6]; 125 g ai/ha): 80
Plant response rating, Ragweed ([6]; 500 g ai/ha): 80
Pigweed plant response rating ([7]; 125 g ai/ha): 90
Plant response rating, Pigweed ([7]; 500 g ai/ha): 100
Plant response rating, Corn ([8]; visual injury approx. 10 days): 10
Corn plant response rating [8]: 70
Plant response rating, Wheat ([9]; visual injury approx. 10 days): 60
Wheat plant response rating [9]: 70
Plant response rating, Blackgrass ([10]; visual injury approx. 10 days): 40
Blackgrass plant response rating [10]: 80
Ryegrass, Italian plant response rating ([11]; 125 g ai/ha): 90
Plant response rating, Ryegrass, Italian ([11]; 500 g ai/ha): 100
Plant response rating, Galium ([12]; visual injury approx. 10 days): 90
Galium plant response rating [12]: 90
Foxtail, Giant plant response rating ([13]; 125 g ai/ha): 100
Plant response rating, Foxtail, Giant ([13]; 500 g ai/ha): 100
Kochia plant response rating ([14]; 125 g ai/ha): 80
Plant response rating, Kochia ([14]; 500 g ai/ha): 90
Plant response rating, Foxtail, Giant ([15]; visual injury approx. 10 days): 80
Foxtail, Giant plant response rating [15]: 90
